Results taken from ChEMBL document CHEMBL4613223, “Structure-based design of guanosine analogue inhibitors targeting GTP cyclohydrolase IB towards a new class of antibiotics” (Bioorg Med Chem Lett, 2020).

How the values were obtained:
[1] = Inhibition of Thermus thermophilus HB8 GCYH1A expressed in Escherichia coli BL21 (DE3) using GTP as substrate incubated for 60 to 180 mins by spectrofluorimetric analysis
[2] = Inhibition of recombinant full-length Neisseria gonorrhoeae N-terminal His6-tagged GCYH1B expressed in Escherichia coli BL21 (DE3) using GTP as substrate incubated for 50 to 60 mins by fluorescence based assay
[3] = Inhibition of full-length human GCYH1A expressed in Escherichia coli using GTP as substrate incubated for 30 mins by fluorescence based assay
[4] = Inhibition of Neisseria gonorrhoeae GCYH1B

Structure (SMILES)	Ki [1] [µM]	Ki [2] [µM]	IC50 [3] [µM]	IC50 [4] [µM]
Nc1nc2c([nH]c(=O)n2[C@@H]2O[C@H](CO[P@@](=O)(O)O[P@@](=O)(O)OP(=O)(O)O)[C@@H](O)[C@H]2O)c(=O)[nH]1	0.0054	0.15		
Nc1nc(OC[C@@H](O)CO)c2[nH]c(=O)n([C@@H]3O[C@H](CO)[C@@H](O)[C@H]3O)c2n1			372	164
Nc1nc(OC[C@H](O)CO)c2[nH]c(=O)n([C@@H]3O[C@H](CO)[C@@H](O)[C@H]3O)c2n1			409	134
COc1nc2c(=O)[nH]c(N)nc2n1[C@@H]1O[C@H](CO)[C@@H](O)[C@H]1O				372
Nc1nc(OCCO)c2[nH]c(=O)n([C@@H]3O[C@H](CO)[C@@H](O)[C@H]3O)c2n1			221	413
